Values quoted from earlier work, collected in patent publication US10576041B2, “Extended relief dosage form” (The Procter & Gamble Company, priority 2016, dated 2020).
Counter-ions that a name gives are not always drawn.

Settings: immediate release; in the human body

SMILES | half-life [h]
COc1ccc2c(c1)[C@]13CCCC[C@@H]1[C@H](C2)N(C)CC3 [dextromethorphan hydrobromide] | 3 to 5
CN[C@@H](C)[C@@H](O)c1ccccc1 [pseudoephedrine hydrochloride] | 4.3 to 8
